Entries after “also recorded” stand apart in the source; their conditions may differ. Where two headings read alike, the source gives them in different places.
Key:
alt-NHEJ [1] = test: EJ-DR 384-well imaging assay, alt-NHEJ (RFP) readout; conditions: for Selectivity Index (HR IC50/alt-NHEJ IC50): Supplementary Table 2
HR = test: EJ-DR 384-well imaging assay, HR (GFP) readout; conditions: read-out: HR IC50
EJ-DR U2OS cells = test: Cytotoxicity in the absence of DSB ligands (CT), Hoechst cell count; assay type: cell-based, human; conditions: Supplementary Table 2, mean ± SEM of four technical replicates
alt-NHEJ [2] = conditions: ratio; Supplementary Table 2
[3] = In vivo pharmacokinetic study, brain tissue; conditions: female, athymic nude, mouse, brain, po, 30 mg/kg
Description: (§1) These measurements were used to calculate various pharmacokinetic parameters critical to bioavailability including time to reach maximum concentration (tmax), maximum concentration achieved (Cmax), and half-life (t1/2) (Figure 5C, 5D, Supplementary Table 1).
(§2) Compound concentrations were measured at these time-points using Liquid Chromatography with tandem mass spectrometry (LC-MS-MS). Pharmacokinetic studies were performed by orally dosing test compounds at 30 mg/kg dissolved in 50% PEG400 and 50% water in female athymic nude mice. Plasma and brain tissue concentration were measured using mass spectrometry (MS).

[4] = Microsomal half-life study; assay type: in vitro ADME; conditions: mouse, mouse liver microsomes; read-out: mouse liver microsome half-life
CYP2D6 = target: T1, CYP2D6 (Homo sapiens, UniProt P10635); test: Cytochrome P450 inhibition assay in human liver microsomes, CYP2D6; assay type: in vitro ADME; conditions: human liver microsomes
T1 construct: tissue Eurofins Scientific; host or cells: human liver microsomes
Description: CYP inhibition assays were performed by Eurofins Scientific. Test compounds were incubated with human liver microsomes, followed by compound detection using high performance liquid chromatography with tandem mass spectrometry (HPLC-MS/MS).

[5] = Cytotoxicity in the absence of DSB ligands (CT), Hoechst cell count; assay type: cell-based, human; conditions: human, EJ-DR U2OS cells; no DSB ligands; Table 1; read-out: Cytotoxicity IC50
[6] = cited from earlier work
[7] = In vivo pharmacokinetic study, plasma
Description: as §1, §2

[8] = Homo sapiens, read-out: alt-NHEJ IC50
[9] = recurrent GBM patients, mibefradil with hypofractionated RT
[10] = oral 30 mg/kg, female athymic nude mice

T1 sequence (P10635 whole entry): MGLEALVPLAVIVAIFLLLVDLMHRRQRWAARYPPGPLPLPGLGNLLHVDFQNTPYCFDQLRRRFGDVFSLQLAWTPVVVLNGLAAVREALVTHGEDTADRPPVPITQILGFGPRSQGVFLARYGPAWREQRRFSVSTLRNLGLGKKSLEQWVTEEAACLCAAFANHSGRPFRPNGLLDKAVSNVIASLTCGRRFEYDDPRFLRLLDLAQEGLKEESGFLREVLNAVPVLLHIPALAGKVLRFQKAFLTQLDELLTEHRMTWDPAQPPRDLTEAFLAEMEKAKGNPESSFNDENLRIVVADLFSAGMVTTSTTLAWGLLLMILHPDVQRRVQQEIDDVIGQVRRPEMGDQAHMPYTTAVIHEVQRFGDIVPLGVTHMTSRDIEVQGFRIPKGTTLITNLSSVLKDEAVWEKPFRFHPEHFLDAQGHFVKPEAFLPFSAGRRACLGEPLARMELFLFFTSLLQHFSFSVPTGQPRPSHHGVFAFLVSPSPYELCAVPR

Row | SMILES | IC50 (alt-NHEJ [1]; [8]) [µM] | Selectivity Index (HR IC50/alt-NHEJ IC50) (alt-NHEJ [1]; ratio) | IC50 (HR; Homo sapiens) [µM] | IC50 (EJ-DR U2OS cells; Homo sapiens, U2OS) [µM] | other results
1 | NC1(C(=O)N[C@@H](CCO)c2ccc(Cl)cc2)CCN(c2ncnc3[nH]ccc23)CC1 [AZD 5363] | 16.9 ± 26.5 | 1.87 | 31.6 ± 59.2 | 48.5 ± 73 | 
2 | NC(=O)Nc1cc(-c2cccc(F)c2)sc1C(=O)N[C@H]1CCCNC1 [AZD 7762] | > 60 |  | > 60 | 0.13 ± 0.01 | 
3 | COc1ccc(-c2ccc3c(N4CCOC[C@@H]4C)nc(N4CCOC[C@@H]4C)nc3n2)cc1CO [AZD 8055] | 0.05 ± 0.01 | 57.00 | 2.85 ± 1.04 | 0.89 ± 0.28 | 
4 | Cn1ncc(Cl)c1-c1cc(C(=O)N[C@H](CN)Cc2cccc(F)c2)sc1Cl [Afuresertib] | 0.61 ± 0.46 |  | 4.53 ± 5.75 | 14.2 ± 2.32 | Selectivity Index (HR IC50/alt-NHEJ IC50) (alt-NHEJ [2]): 7.43
5 | O.O=C(O)C(F)(F)F.O=c1[nH]c2ccccc2n1C1CCN(Cc2ccc(-c3nc4cc5[nH]cnc5cc4nc3-c3ccccc3)cc2)CC1 [Akt-1/2 inhibitor] |  |  |  |  | selectivity index SI (CT IC50/alt-NHEJ IC50) (alt-NHEJ [1]; ratio): 77.67; IC50 (alt-NHEJ [1]; read-out: alt-NHEJ IC50, EJ-DR U2OS cells, text and figures): 0.15 µM; IC50 (HR; EJ-DR U2OS cells, text and figures): > 10 µM
6 | CO[C@H]1C[C@@H]2CC[C@@H](C)[C@@](O)(O2)C(=O)C(=O)N2CCCC[C@H]2C(=O)O[C@H]([C@H](C)C[C@@H]2CC[C@@H](OCCO)[C@H](OC)C2)CC(=O)[C@H](C)/C=C(\C)[C@@H](O)[C@@H](OC)C(=O)[C@H](C)C[C@H](C)/C=C/C=C/C=C/1C [Everolimus] | 0.05 ± 0.03 | 1.40 | 0.07 ± 0.03 | 3.17 ± 2.05 | 
7 | CC(C)NC[C@@H](C(=O)N1CCN(c2ncnc3c2[C@H](C)C[C@H]3O)CC1)c1ccc(Cl)cc1 [GDC-0068] | 9.4 ± 1.78 | 2.35 | 22.1 ± 1.84 | 41.5 ± 3.32 | 
8 | NC1(c2ccc(-c3nc4ccn5c(=O)[nH]nc5c4cc3-c3ccccc3)cc2)CCC1 [MK-2206] | 0.66 ± 0.31 | 6.67 | 4.4 ± 5.17 | 16.5 ± 2.56 | 
9 | COCC(=O)O[C@]1(CCN(C)CCCc2nc3ccccc3[nH]2)CCc2cc(F)ccc2[C@@H]1C(C)C [Mibefradil, mibefradil] |  |  | > 60 |  | half-life [3]: ~8 h; half-life [4]: 0.25 h; effect on alt-NHEJ and HR in the EJ-DR assay (alt-NHEJ [1]; EJ-DR U2OS cells): selective inhibition of alt-NHEJ over HR without significant cellular cytotoxicity; also recorded: selective inhibition of alt-NHEJ over HR; IC50 (alt-NHEJ [1]; Homo sapiens, U2OS, read-out: alt-NHEJ IC50): ~4 µM; IC50 (alt-NHEJ [1]; Homo sapiens, read-out: nc-EJ IC50): 3.8 µM; IC50 (CYP2D6): 0.6 µM; IC50 at 96 h [5]: 10.5 µM; patients showing QT prolongation ([6]; mibefradil phase I trial, ref manuscript under preparation, 12): five out of 19; QT interval elongation, dose-limiting toxicity [6, 9]: 28%; sinus bradycardia, dose-limiting toxicity [6, 9]: 28%; half-life ([7]; female, athymic nude, mouse, plasma, po, 30 mg/kg): 2.6 h; Cmax ([7]; female, athymic nude, mouse, plasma, po, 30 mg/kg, Maximum concentration (Cmax), oral 30 mg/kg, female athymic nude mice, YU252222 given as methyl ester prodrug): 1090 ng/mL; % AUC Extrapolation [7, 10]: 0.4%; AUC(0-x)/Dose [7, 10]: 161 ng·h/mL/mg/kg; Cmax/Dose [7, 10]: 36.3 ng/mL/mg/kg; Time at which Cmax was observed (tmax) [7, 10]: 1.0 h
10 | O=c1cc(N2CCOCC2)oc2c(-c3cccc4c3sc3ccccc34)cccc12 [NU 4771] |  |  |  |  | effect on alt-NHEJ and HR in the EJ-DR assay (alt-NHEJ [1]; EJ-DR U2OS cells): increase in both alt-NHEJ and HR
11 | CCc1cncnc1N1CCN(Cc2nc3ccc(C(F)(F)F)cc3[nH]2)CC1 [PF-04708671] |  |  |  |  | IC50 (alt-NHEJ [1]; read-out: alt-NHEJ IC50, EJ-DR assay, Supplementary Table 2, mean ± SEM of four technical replicates): > 60 µM; IC50 (HR; EJ-DR assay, Supplementary Table 2, mean ± SEM of four technical replicates): > 60 µM; IC50 (EJ-DR U2OS cells): 36.9 ± 3.82 µM

Reference: publication PMC8092340 (Oncotarget, 2021)
